Measurements from patent publication US20250186379A1, “METHODS AND AGENTS FOR DECREASING INSULIN RESISTANCE” (Whitehead Institute for Biomedical Research, priority 2021, published 2025).
Entries after “also recorded” stand apart in the source; their conditions may differ.

Tested on: IR condensates
Test: Imaging of IR puncta/condensates (immunofluorescence, IR-GFP) in HepG2 cells
Format: cell-based, human
Protocol: For insulin sensitivity and resistance experiments in HepG2 cells, cells were washed with EMEM once and cultured in EMEM for two days. […] To wash out insulin, cells were washed in EMEM seven times, which includes three quick washes, three 5 min washes and a long 20 minute-wash in EMEM at 37° C. In order to investigate insulin response, cells were acutely treated for 5 min with insulin diluted in EMEM supplemented with 1.25% fatty acid-free BSA at 37° C. with 5% CO2 in a humidified incubator.
Metformin (SIGMA, D150959-5G) was resuspended in sterile water to a concentration of 1M and diluted to the reported concentrations in the figures in cell media. […]
HepG2 cells, human liver spheroids and human tissue liver sections were fixed in 4% PFA (VWR, BT140770-10X10) in PBS for 10 min at room temperature. Cells were washed in PBS three times for 5 min and then blocked with 4% IgG-free BSA (VWR, 102643-516) for 15-60 min at room temperature. Cells were then incubated with 1:500 primary antibody in 4% IgG-free BSA at 4° C. overnight. The next day, cells were washed three times with PBS and incubated with 1:500 secondary antibodies in 4% IgG-free BSA at room temperature for 1 hr covered in foil. Cells were washed three times with PBS for 5 min. DNA was stained using 1:5000 Hoechst in PBS for 5 min at RT. Cells were washed three times with PBS for 5 min, stored at 4° C. until imaging. For tissue sections, samples were mounted using Vectashield mounting media (Vector Laboratories, Inc, H-1000). LSM880 microscope with Airyscan detector (ZEISS) was used for image acquisition. Images were then processed using Fiji/ImageJ v2.1.0/153c.
Cells expressing endogenous IR tagged with GFP were grown on 35 mm glass bottom dishes (MatTek Corporation, P35G-1.5-20-C). Cells were imaged at 37° C. using the SM880 Microscope with Airyscan detector with 63× objective and Zen Black software (ZEISS) at the W.M. Keck Microscopy Facility, MIT. Images were then processed using Fiji/ImageJ v2.1.0/153c.
To quantify IR fluorescent signal in puncta, Fiji/ImageJ v2.1.0/153c was used. A circle or an oval was drawn around IR puncta using the oval selection tool and the average fluorescence intensity in the circle/oval (=in the puncta) was determined using the measure tool on Fiji. Background was then subtracted as previously described. To quantify IR fluorescent signal at puncta in various cellular compartments, applicant identified the location of the plasma membrane, cytoplasm, nucleus and RNA FISH spots as follows. The plasma membrane location was identified based on IR immunofluorescence signal, IR-GFP fluorescent signal or CK18 immunofluorescence signal or cell edge. The nucleus was determined by the Hoechst stain for immunofluorescence and tc-PALM experiments or by IR-GFP fluorescence when HepG2 cells expressing IR-GFP were imaged. Given the overlap between Hoechst fluorescence and GFP fluorescence, artefactual green fluorescence coming from the Hoechst confounded IR puncta identification in the nucleus. Since the differences in IR puncta intensity and concentration between cytoplasm and nucleus in HepG2 cells was clear, nuclear outline was easily drawn based on IR-GFP fluorescent signal. Cytoplasm was considered the region between the plasma membrane and the nucleus. RNA FISH spots were identified based on RNA FISH probe fluorescence. Within the FISH spot, IR intensity was measured using the measure tool.
To estimate the number of IR puncta at the plasma membrane, cytoplasm, nucleus or in entire cells, IR puncta were initially counted in a cell slice using Fiji. The number obtained from the cell slice was then multiplied based on the estimated size of the plasma membrane, cytoplasm, nucleus or entire cell, which were obtained considering the length and width of the cell under investigation and the estimated height (˜5 um). […]

[1] = insulin sensitive HepG2 cells, acute 3 nM insulin
[2] = insulin resistant HepG2 cells, metformin concentration series (FIG. 5A,B)

Molecule: TNFα
- insulin-stimulated IR incorporation into puncta (HepG2 cells, 2 days pathological TNFα or high nutrients, 3 nM insulin 5 min (FIG. 27)): caused a decrease in insulin-stimulated IR incorporation into puncta

Molecule: insulin: insulin (Sigma Aldrich, I9278-5ML) used for acute stimulation and chronic physiological or pathological exposure
- incorporation of additional IR into condensates/puncta (insulin resistant HepG2 cells, acute insulin (3 nM)): did not promote incorporation of additional IR into condensates; also recorded: did not promote incorporation of additional IR into puncta
- IR signal intensity in puncta [1]: caused an increase; also recorded: elevated IR-GFP signal in these puncta; also recorded: promotes an increase in IR-GFP signal in IR puncta
- number of IR puncta in the cytoplasm and nucleus [1]: caused an increase; also recorded: increased numbers of cytoplasmic and nuclear puncta; also recorded: an increase in the number of IR puncta in the nucleus and cytoplasm
- IR-incorporation into condensates over a range of insulin concentrations (insulin-sensitive cells, 0, 0.1, 1, 10, 100 nM insulin 5 min (FIGS. 17G-17H)): non-linear transition

Molecule: CN(C)C(=N)N=C(N)N [metformin, reference compound]
- IR condensate rescue (insulin resistant HepG2 cells, 12.5 uM metformin): significant; also recorded: evident
- intensity of IR signal in condensates [2]: dose-dependent increase
- number of IR containing condensates [2]: dose-dependent increase
- effect on IR condensates (insulin sensitive HepG2 cells, 50 nM metformin as printed (FIG. 13A)): little or no effect on IR condensates
- IR signal in puncta (insulin-resistant IR-GFP HepG2 cells, 12.5 μM metformin, 3 nM insulin 5 min (FIGS. 16D-16E, 30A)): partially restored IR signal in these puncta
- effect on IR puncta / IR condensates (insulin-sensitive HepG2 IR-GFP cells with or without metformin (50 μM in FIG. 30B), 3 nM insulin 5 min): little or no effect on IR puncta; also recorded: does not affect IR condensates in insulin sensitive cells
